Experimental data reported in article PMC5187537, “Antioxidant Activity of Oat Proteins Derived Peptides in Stressed Hepatic HepG2 Cells” (Antioxidants, 2016).
Peptide text beside a SMILES is read from it.

What was measured:
Type in all cases: cell-based, Human
HepG2 cells = assay: MTT cytotoxicity assay; settings: 24 h
Protocol: Human hepatocellular carcinoma (HepG2) cells were purchased from the American Type Culture Collection (ATCC; Manassas, VA, USA). They were cultured at 37 °C in a humidified incubator with 5% CO2 and 95% air. Dulbecco’s Minimal Essential Media (DMEM) supplemented with 10% (v/v) Fetal Bovine Serum was used for the maintenance of cells. […] The MTT (3-(4,5-dimethylthiazol-2-yl)-2,5-diphenyltetrazolium bromide) assay, as described in an earlier research, was used for cytotoxicity and cytoprotective tests. […] Following another 24 h incubation, cells were washed twice with 200 µL of PBS. Ten µL of MTT solution (5 mg/mL in PBS) and 100 µL of media were added to each well. After 1 h, MTT solution was removed, and 50 µL DMSO were added. Absorbances were recorded at 570 nm with 630 nm background subtraction using a BioTek Epoch™ microplate reader (Fisher Scientific, Nepean, ON, Canada). Untreated cells were used as negative control (NC) and cells treated with only AAPH were used as positive control (PC).

[1] = system: glutathione peroxidase (GPx); assay: Glutathione peroxidase activity of lysates of AAPH-stressed cells; settings: then AAPH 24 h; for Effect on GPx activity of AAPH-stressed cells: 50 µM peptide 24 h; for Increase of GPx activity above that of normal cells: 100 µM peptide 24 h, p < 0.05
Protocol: (§1) Cells were seeded at 1 × 10^6 cells/plate in 60 mm tissue culture plates and allowed to grow for 24 h. In each plate, cells were washed twice with 4 mL of PBS (pH 7.2), and treated with 4 mL peptide samples (P1, P2, P6, P7) dissolved in culture media at 50 or 100 µM for 24 h. After removal of peptide solutions, cells were washed twice with 4 mL of PBS/plate and treated with 4 mL of […] dissolved in culture media and allowed to incubate for 24 h. Cells in each culture plate were harvested by incubation (5 min) with 0.5 mL of 0.25% trypsin, addition of 1 mL of culture media and centrifugation at 1000× g for 5 min. Cell pellets were washed with ice cold PBS (500 µL each) until no pink color was observed, re-suspended in ice cold PBS (300 µL) for the superoxide dismutase (SOD) assay, 500 µL for glutathione peroxidase (GPx) and catalase (CAT) assays. For total glutathione assay, 300 µL of 5% ice cold sulfosalicylic acid bubbled with 100% nitrogen was used for cell lysis. Cells were lysed by sonication on ice for 1 min using a probe-type sonicator (Vibra-Cell, Sonics and Materials Inc., Newtown, CT, USA) pulsing at 15 s on and 10 s off cycles. Following centrifugation of cell lysate at 13,000× g (4 °C), pellets containing cell debris were discarded, while supernatants were used for determination of glutathione content. Protein contents were determined using a modified Lowry assay.
The activity of GPx was determined as previously described in a 96-well plate. Briefly, in each well, 187.5 µL of potassium phosphate buffer was mixed with 12.5 µL NADPH (4 mM) solution and 25 µL of cell lysates or buffer (blank), and incubated at 30 °C for 5 min. Then, 100 µL of 0.15% cumene hydroperoxide was added in each well to begin the reaction. The rate of disappearance of NADPH was followed at 340 nm for 5 min. The activity was expressed as Units of GPx activity/mg protein.

[2] = system: superoxide dismutase (SOD); assay: Superoxide dismutase activity of lysates of AAPH-stressed cells; settings: 50 and 100 µM peptide 24 h, then AAPH 24 h
Protocol: as §1
The SOD activity was measured based on the rate of reduction of nitroblue tetrazolium (2.24 mM) to formazan by xanthine oxidase (13.2 U/mL) at 560 nm. Eight concentrations of each cell extract ([…] protein/mL) or SOD standard (2–500 ng/mL) were used to obtain inhibition curves. Specifically, 20 µL of cell sample, or buffer (blank) was mixed with 160 µL of assay solution, and 20 µL of xanthine oxidase was added to initiate the reaction. The reduction of nitroblue tetrazolium to blue formazan by O2^−• generated in situ was followed at 560 nm. SOD activities were calculated and expressed as units per milligram of protein.

catalase (CAT) = assay: Catalase activity of lysates of AAPH-stressed cells; settings: then AAPH 24 h; for Further increase of CAT activity compared to PC cells: 50 µM peptide 24 h
Protocol: as §1, with “assay. To measure the catalase activity, 1790 µL potassium phosphate buffer (50 mM, pH 7.0) was mixed with 200 µL cell lysate in a UV cuvette. Ten µL of H2O2 (30%) was added, and removal of H2O2 by catalase was followed at 240 nm using a Cary 50 Bio UV-Vis spectrophotometer with 18-cell changer (Varian Inc., Mississauga, ON, Canada). The activity was expressed as a percentage of control.” for “assay.”

[3] = system: intracellular ROS of HepG2 cells; assay: Intracellular reactive oxygen species, DCFH2-DA assay; settings: 100 µM peptide 24 h, then 20 mM AAPH 24 h, 40 µM DCFH2-DA, fluorescence 60 min
Protocol: The measurement of intracellular ROS was determined using a method described by Wolfe and Rui, with modifications. HepG2 cells were seeded at 4 × 10^4 cells/well in a 96-well tissue culture plate and were treated for 24 h with 100 µM of peptide dissolved in media, with the exception of NC and PC controls. Media was removed, cells washed twice with PBS, incubated (24 h) with 20 mM AAPH and washed again with PBS. Two hundred µL of 40 µM DCFH2-DA dissolved in buffer was added, and fluorescent intensity was immediately recorded at 2 min intervals for a total of 60 min. The percentage increase in fluorescent intensity was calculated as shown in Equation (1). (1) Fluorescent increase (%)=Final reading−Initial reading/Initial reading×100

Row | SMILES | Increase in cell viability (growth promotion) (HepG2 cells; peptide alone, no AAPH, MTT (Figure 2A)) | Concentration above which cytotoxic (HepG2 cells; tested at 20–500 µM, MTT) | Effect on GPx activity of AAPH-stressed cells [1] | Increase of GPx activity above that of normal cells [1] | Effect on SOD activity compared to AAPH treated cells only (PC) [2] | Further increase of CAT activity compared to PC cells (catalase (CAT)) | Effect on CAT activity (catalase (CAT); 100 µM peptide 24 h) | Intracellular reactive oxygen species [3] | Effect on HepG2 cell viability compared to NC (HepG2 cells; 50 and 100 µM peptide, MTT, p > 0.05)
1 | CC[C@H](C)[C@H](NC(=O)[C@H](Cc1ccc(O)cc1)NC(=O)[C@@H](NC(=O)[C@H](CC(C)C)NC(=O)CN)C(C)C)C(=O)N[C@@H](CC(C)C)C(=O)O [P2] (H-GLVYIL-OH; N-terminus and C-terminus assumed) | ~2.7 fold | above 450 µM | completely restored the activity | 30.2% | increase SOD to a level equivalent to that of normal cells | 60% | almost doubled | reduced production of intracellular reactive oxygen species | 
2 | CC[C@H](C)[C@H](NC(=O)[C@H](Cc1ccc(O)cc1)NC(=O)[C@@H](NC(=O)[C@H](CC(C)C)NC(=O)CNC(=O)[C@@H]1CCCN1C(=O)[C@H](C)NC(=O)[C@H](CC(N)=O)NC(=O)[C@H](Cc1c[nH]cn1)NC(=O)[C@@H](N)Cc1ccc(O)cc1)C(C)C)C(=O)N[C@@H](CC(C)C)C(=O)O [P6] (H-YHNAPGLVYIL-OH; N-terminus and C-terminus assumed) |  |  | completely restored the activity | 38.6% | did not affect the activity | 60% |  | reduced production of intracellular reactive oxygen species | did not affect HepG2 cells viability
